Test results as given in ChEMBL document CHEMBL4043063, “Anti-tuberculosis activity and structure-activity relationships of oxygenated tricyclic carbazole alkaloids and synthetic derivatives” (Bioorg Med Chem, 2017).
Values after ≈ are worked out from the molar mass of the structure shown.

Tests used:
[1] = system: Mycobacterium tuberculosis; assay: Antitubercular activity against Mycobacterium tuberculosis H37Rv by microplate alamar blue assay; type: functional
[2] = Selectivity index, ratio of IC50 for African green monkey Vero cells to MIC90 for Mycobacterium tuberculosis H37Rv; type: toxicity; settings: read-out: Selectivity Index
[3] = system: Vero; assay: Cytotoxicity against African green monkey Vero cells assessed as reduction in cell viability after 72 hrs by tetrazolium dye assay; type: cell-based; settings: Chlorocebus sabaeus

Row | SMILES | MIC90 [1] | selectivity ratio [2] | IC50 [3]
1 | Cc1cc2c(cc1O)[nH]c1ccccc12 | 41.5 µM (≈ 8.19 µg/mL) | – | –
2 | COc1ccc2c([nH]c3cc(O)c(C)cc32)c1C=O | > 50 µM | – | –
3 | COc1ccc2[nH]c3c(O)cc(C=O)cc3c2c1 | 6.9 µM (≈ 1.66 µg/mL) | > 7.2 | > 50 µM
4 | O=C(O)c1cc2c([nH]c3ccccc32)c(-c2c[nH]c3ccccc23)c1O | > 50 µM | – | –
5 | CCCCCCCc1c(C)c(OC)c(OC)c2c1[nH]c1ccccc12 | 6.2 µM (≈ 2.1 µg/mL) | > 8.1 | > 50 µM
6 | COc1ccc2[nH]c3c(OC)cc(C)cc3c2c1 | 45.1 µM (≈ 10.9 µg/mL) | – | –
7 | Cc1ccc(S(=O)(=O)Oc2cc(C)cc3c2[nH]c2cc(O)ccc23)cc1 | 19.7 µM (≈ 7.24 µg/mL) | – | –
8 | COC(=O)c1cc2c(cc1OC)[nH]c1ccc(OC)cc12 | 24.4 µM (≈ 6.96 µg/mL) | – | –
9 | COC(=O)c1cc2c(cc1O)[nH]c1ccc(O)cc12 | 29.1 µM (≈ 7.49 µg/mL) | – | –
10 | COc1cc2[nH]c3cc(O)ccc3c2cc1C=O | 36.7 µM (≈ 8.85 µg/mL) | – | –
11 | COc1cc2[nH]c3c(C=O)c(OC)ccc3c2cc1C | > 50 µM | – | –
12 | Cc1cc2c(cc1OCc1ccccc1)[nH]c1ccccc12 | > 50 µM | – | –
13 | O=Cc1cc2c(cc1O)[nH]c1c(O)cccc12 | 3.7 µM (≈ 0.841 µg/mL) | > 13 | > 50 µM
14 | COc1cccc2c1[nH]c1cc(O)c(C)cc12 | > 50 µM | – | –
15 | C#CC(C)(C)Oc1ccc2c(c1)[nH]c1c(OS(=O)(=O)c3ccc(C)cc3)cc(C)cc12 | 20.8 µM (≈ 9.02 µg/mL) | – | –
16 | COC(=O)c1cc2c(cc1O)[nH]c1cc(OC)ccc12 | 47.8 µM (≈ 13 µg/mL) | – | –
17 | COc1ccc2c([nH]c3c(OC)cc(C)cc32)c1OC | 46.9 µM (≈ 12.7 µg/mL) | – | –
18 | CC(C)=CCc1ccc2[nH]c3ccccc3c2c1 | 22.6 µM (≈ 5.32 µg/mL) | – | –
19 | COc1ccc2[nH]c3cc(O)c(C)cc3c2c1 | 1.5 µM (≈ 0.341 µg/mL) | > 33 | > 50 µM
20 | COc1cc2[nH]c3ccccc3c2cc1C(=O)O | > 50 µM | – | –
21 | COc1ccc2[nH]c3c(OC)cc(C=O)cc3c2c1 | > 50 µM | – | –
22 | CC(C)=CCc1c(O)ccc2c1[nH]c1c(OS(=O)(=O)c3ccc(C)cc3)cc(C)cc12 | 19.4 µM (≈ 8.45 µg/mL) | – | –
23 | CC(C)=CC(=O)Oc1ccc2c(c1)[nH]c1c(OS(=O)(=O)c3ccc(C)cc3)cc(C)cc12 | 6.2 µM (≈ 2.79 µg/mL) | > 8.1 | > 50 µM
24 | COC(=O)c1cc2c([nH]c3ccccc32)c(-c2cn(S(=O)(=O)c3ccccc3)c3ccccc23)c1O | 2.9 µM (≈ 1.44 µg/mL) | > 17.2 | > 50 µM
25 | CC(C)=CCC/C(C)=C/Cc1c(O)c(C=O)cc2c1[nH]c1ccccc12 | 24.1 µM (≈ 8.37 µg/mL) | – | –
26 | O=C(O)c1cc2c(cc1O)[nH]c1ccc(O)cc12 | > 50 µM | – | –

Row | SMILES | MIC90 [1] | selectivity ratio [2] | IC50 [3]
27 | COc1ccc2c([nH]c3c(O)cc(C)cc32)c1CC=C(C)C | 23.1 µM (≈ 6.82 µg/mL) | – | –
28 | Cc1cc2c(cc1OCc1ccccc1)[nH]c1c(O)cccc12 | 11.8 µM (≈ 3.58 µg/mL) | 2.9 | 33.7 µM
29 | COc1ccc2c(c1)[nH]c1c(Cc3ccccc3)c(O)c(C=O)cc12 | 14.4 µM (≈ 4.77 µg/mL) | 5.1 | 74.1 µM
30 | COc1cccc2[nH]c3cc(OCc4ccccc4)c(C)cc3c12 | 9.3 µM (≈ 2.95 µg/mL) | > 5.4 | > 50 µM
31 | COC(=O)c1cc2c([nH]c3ccccc32)c(I)c1O | 24.6 µM (≈ 9.03 µg/mL) | – | –
32 | COc1cccc2c1[nH]c1cc(O)c(C=O)cc12 | 29.3 µM (≈ 7.07 µg/mL) | – | –
33 | COC(=O)c1cc(OC)c2[nH]c3ccc(OC)cc3c2c1 | 46.7 µM (≈ 13.3 µg/mL) | – | –
34 | CC(C)=CCC/C(C)=C/Cc1c(O)ccc2c1[nH]c1c(OS(=O)(=O)c3ccc(C)cc3)cc(C)cc12 | 20.5 µM (≈ 10.3 µg/mL) | – | –
35 | C=CC(C)(C)c1ccc2[nH]c3ccccc3c2c1 | 11 µM (≈ 2.59 µg/mL) | > 4.5 | > 50 µM
36 | COc1ccc2c([nH]c3cc(O)c(C=O)cc32)c1C=O | 2.8 µM (≈ 0.754 µg/mL) | 16.8 | 47.1 µM
37 | CC(C)=CCc1c(O)ccc2c1[nH]c1cc(O)c(C)cc12 | 29.4 µM (≈ 8.27 µg/mL) | – | –
38 | CC(C)=CCc1c(O)c(C)cc2c1[nH]c1ccccc12 | 11.1 µM (≈ 2.95 µg/mL) | > 4.5 | > 50 µM
39 | COc1ccc2c(c1)[nH]c1cc(O)c(C=O)cc12 | 24.3 µM (≈ 5.86 µg/mL) | – | –
40 | COc1ccc2c(c1)[nH]c1c(CC=C(C)C)c(O)c(C=O)cc12 | 20.6 µM (≈ 6.37 µg/mL) | – | –
41 | COc1ccc2c([nH]c3cc(O)c(C)cc32)c1CC=C(C)C | 11.9 µM (≈ 3.52 µg/mL) | > 4.2 | > 50 µM
42 | COc1ccc2c(c1)[nH]c1cc(O)c(C)cc12 | > 50 µM | – | –
43 | COC1=C(C)C(=O)c2[nH]c3ccccc3c2C1=O [3-METHOXY-2-METHYLCARBAZOLE-1,4-QUINONE] | 4 µM (≈ 0.965 µg/mL) | > 12.5 | > 50 µM
44 | COc1c(C)c(C[C@@H](C)O)c2[nH]c3ccc(CC=C(C)C)cc3c2c1O [(R)-(-)-NEOCARAZOSTATIN B] | 34.5 µM (≈ 12.2 µg/mL) | – | –
45 | COC(=O)c1cc2c(cc1OC)[nH]c1ccccc12 [CLAUSINE L] | > 50 µM | – | –
46 | COc1cc2[nH]c3ccccc3c2cc1C=O [GLYCOSININE] | 39.6 µM (≈ 8.92 µg/mL) | – | –
47 | COc1ccc2[nH]c3cc(OC)c(C=O)cc3c2c1 [GLYCOZOLIDAL] | > 50 µM | – | –
48 | COc1ccc2[nH]c3cc(OC)c(C)cc3c2c1 [GLYCOZOLIDINE] | > 50 µM | – | –
49 | CC(C)=CCc1c(O)c(C=O)cc2c1[nH]c1ccccc12 [HEPTAPHYLLINE] | > 50 µM | – | –
50 | NNC(=O)c1ccncc1 [ISONIAZID] | 0.24 µM (≈ 0.0329 µg/mL) | > 208 | > 50 µM
51 | COC(=O)c1cc2c(cc1O)[nH]c1ccccc12 [MUKONIDINE] | 23.3 µM (≈ 5.62 µg/mL) | – | –
52 | CO[C@H]1/C=C/O[C@@]2(C)Oc3c(C)c(O)c4c(O)c(c(/C=N/N5CCN(C)CC5)c(O)c4c3C2=O)NC(=O)/C(C)=C\C=C\[C@H](C)[C@H](O)[C@@H](C)[C@@H](O)[C@@H](C)[C@H](OC(C)=O)[C@@H]1C [RIFAMPIN] | 0.02 µM (≈ 0.0165 µg/mL) | > 2500 | > 50 µM
